Results reported in patent publication US20250206759A1, “FUSED RING COMPOUND, PHARMACEUTICAL COMPOSITION CONTAINING SAME, AND USE OF FUSED RING COMPOUND” (CHENGDU HYPERWAY PHARMACEUTICALS CO., LTD., priority 2022, published 2025).
Like-named read-outs stand apart in the source and are kept apart here.

Assay: Pharmacokinetics of compounds in rats (oral)
Type: in vivo, SD rats
Conditions: male SD rats
Experimental: Male SD rats were purchased from Shanghai SIPPR-Bk Lab Animal Co., Ltd. Each test compound was administered orally (3 rats per group) once to SD rats for pharmacokinetic study. The test compounds were prepared on the day of administration. The test compounds were suspended in 5% DMSO+95% saline, and then vortexed for 2 min and ultrasonicated for 5 min to prepare the administration system. The animals were fasted for 10-14 h before oral administration, and the feeding was resumed 4 h after administration. After oral administration by gavage, pharmacokinetic samples were collected from SD rats through the jugular vein. The collection time points were: before administration, 15 min, 30 min, 1 h, 2 h, 4 h, 6 h, 8 h and 24 h after administration. Three whole blood samples were collected at each time point, with a collection volume of about 0.2 mL, and anticoagulated with sodium heparin. After blood samples were collected, they were immediately placed on ice and centrifuged to separate plasma within 1 hour (centrifugation conditions: 6800 rpm, 6 min, 2-8° C.). The collected plasma was stored in a −80° C. refrigerator before analysis.

[1] = male, SD, rat, plasma, po, 100 mg/kg, 100 mg/kg, read-out: AUC
[2] = male, SD, rat, plasma, po, 100 mg/kg, 100 mg/kg, read-out: Cmax
[3] = male, SD, rat, plasma, po, 10 mg/kg, 10 mg/kg, read-out: AUC
[4] = male, SD, rat, plasma, po, 10 mg/kg, 10 mg/kg, read-out: Cmax

| Structure (SMILES) | AUC [1] | Cmax [2] | AUC [3] | Cmax [4] | further results |
| --- | --- | --- | --- | --- | --- |
| Oc1cc(-c2ncc3c(N4CC5CCC(C4)N5)nc(OCC45CCCN4[C@@H](c4ccc(C(F)(F)F)c(Cl)c4)CC5)nc3c2F)c2c(F)c(F)ccc2c1 (mixture of isomers) [Example 215] | 471 ng·h/mL | 128 ng/mL | – | – | – |
| Nc1ccc(C(F)(F)F)c(-c2ncc3c(N4CC5CCC(C4)N5)nc(OCC45CCCN4[C@@H](c4ccc6c(c4)OC(F)(F)O6)CC5)nc3c2F)c1 (mixture of isomers) [Example 234] | 1190 ng·h/mL | 182 ng/mL | – | – | – |
| Oc1cc(-c2ncc3c(N4C[C@H]5CC[C@@H](C4)N5)nc(OCC45CCCN4C(c4ccc(C6=CCOCC6)cc4)CC5)nc3c2F)c2ccccc2c1 (stereo partly drawn) [Example 45, 4-(4-((1R,5S)-3,8-diazabicyclo[3.2.1]octan-3-yl)-2-((3-(4-(3,6-dihydro-2H-pyran-4-yl)phenyl)tetrahydro-1H-pyrrolidin-7a(5H)-yl)methoxy)-8-fluoropyrido[4,3-d]pyrimidin-7-yl)naphthalen-2-ol] | – | – | – | – | AUC (10 mg/kg): 94 ng·h/mL; Cmax (10 mg/kg): 21 ng/mL |
| Oc1cc(-c2ncc3c(N4CC5CCC(C4)C5(F)F)nc(OC[C@@]45CCCN4C[C@H](F)C5)nc3c2F)c2c(F)c(F)ccc2c1 [Example 86] | – | – | 52 ng·h/mL | 21 ng/mL | – |
| Oc1cc(-c2ncc3c(N4CC5CCC(C4)N5)nc(OCC45CCCN4C(c4ccc(OC(F)(F)F)cc4)CC5)nc3c2F)c2ccccc2c1 (stereo not shown) [Example 118] | 1290 ng·h/mL | 115 ng/mL | 224 ng·h/mL | 31 ng/mL | – |
| Oc1cc(-c2ncc3c(N4CC5CCC(C4)N5)nc(OCC45CCCN4C(c4ccc6occc6c4)CC5)nc3c2F)c2ccccc2c1 (stereo not shown) [Example 131] | – | – | 57 ng·h/mL | 13 ng/mL | – |
| Oc1cc(-c2ncc3c(N4CC5CCC(C4)N5)nc(OCC45CCCN4C(c4ccc6c(c4)OC(F)(F)O6)CC5)nc3c2F)c2ccccc2c1 (stereo not shown) [Example 132] | – | – | 240 ng·h/mL | 29 ng/mL | – |
| Oc1cc(-c2ncc3c(N4C[C@H]5CC[C@@H](C4)N5)nc(OCC45CCCN4C(c4ccc6c(c4)OC(F)(F)O6)CC5)nc3c2F)c2c(F)c(F)ccc2c1 (stereo partly drawn) [Example 140, 4-(4-((1R,5S)-3,8-diazabicyclo[3.2.1]octan-3-yl)-2-((3-(2,2-difluorobenzo[d][1,3]dioxy-5-yl)tetrahydro-1H-pyrrolizin-7a(5H)-yl)methoxy)-8-fluoropyridin[4,3d]pyrimidin-7-yl)-5,6-difluoronaphthalen-2-ol] | – | – | – | – | AUC (100 mg/kg): 444 ng·h/mL; Cmax (100 mg/kg): 113 ng/mL |
| Oc1cc(-c2ncc3c(N4C[C@H]5CC[C@@H](C4)N5)nc(OCC45CCC(c6ccc(OC(F)(F)F)cc6)N4CC4(CC4)C5)nc3c2F)c2ccccc2c1 (stereo partly drawn) [Example 143, 4-(4-((1R,5S)-3,8-diazabicyclo[3.2.1]octan-3-yl)-8-fluoro-2-((5′-(4-(trifluoromethoxy)phenyl)dihydro-1′H,3′H-spiro[cyclopropan-1,2′-pyrrolizin]-7a′(5′H)-yl)methoxy]pyrido[4,3d]pyrimidin-7-yl)naphthalen-2-ol] | – | – | – | – | AUC (10 mg/kg): 410 ng·h/mL; Cmax (10 mg/kg): 32 ng/mL |
| Nc1ccc(OC(F)(F)F)c(-c2ncc3c(N4CC5CCC(C4)N5)nc(OC[C@]45CCCN4C(c4ccc6c(c4)OC(F)(F)O6)CC5)nc3c2F)c1 (stereo partly drawn) [Example 163, 3-(4-((1R,5S)-3,8-diazabicyclo[3.2.1]octan-3-yl)-2-((3-(2,2-difluorobenzo[d][1,3]dioxy-5-yl)tetrahydro-1H-pyrrolizin-7a(5H)-yl)methoxy)-8-fluoropyridin[4,3d]pyrimidin-7-yl)-4-(trifluoromethoxy)] | 2750 ng·h/mL | 388 ng/mL | – | – | – |
| Oc1cc(-c2ncc3c(N4CC5CCC(C4)N5)nc(OCC45CCCN4C(c4ccc(C(F)(F)F)cc4)CC5)nc3c2F)c2ccccc2c1 (stereo not shown) [Example 170] | – | – | 533 ng·h/mL | 39 ng/mL | – |
| Oc1cc(-c2ncc3c(N4CC5CCC(C4)N5)nc(OCC45CCCN4C(c4ccc(-c6ccc(F)cc6)cc4)CC5)nc3c2F)c2c(F)c(F)ccc2c1 (stereo not shown) [Example 190] | 939 ng·h/mL | 66 ng/mL | – | – | – |
| Oc1cc(-c2ncc3c(N4CC5CCC(C4)N5)nc(OCC45CCCN4C(c4ccc(OC(F)(F)F)cc4)CC5)nc3c2F)c2c(F)c(F)ccc2c1 (stereo not shown) [Example 210] | 246 ng·h/mL | 145 ng/mL | – | – | – |
